# According to patent publication US11976061B2, “Preparation of benzimidazolone derivatives as novel diacylglyceride O-acyltransferase 2 inhibitors” (Merck Sharp & Dohme LLC, priority 2020, dated 2024):
# Biological target: T1, human DGAT2 (hDGAT2) (Homo sapiens, UniProt Q96PD7)
# T1 construct: made in house; host or cells: Sf-9 insect cells (baculovirus), membrane fraction
# T1 sequence (Q96PD7 1-388): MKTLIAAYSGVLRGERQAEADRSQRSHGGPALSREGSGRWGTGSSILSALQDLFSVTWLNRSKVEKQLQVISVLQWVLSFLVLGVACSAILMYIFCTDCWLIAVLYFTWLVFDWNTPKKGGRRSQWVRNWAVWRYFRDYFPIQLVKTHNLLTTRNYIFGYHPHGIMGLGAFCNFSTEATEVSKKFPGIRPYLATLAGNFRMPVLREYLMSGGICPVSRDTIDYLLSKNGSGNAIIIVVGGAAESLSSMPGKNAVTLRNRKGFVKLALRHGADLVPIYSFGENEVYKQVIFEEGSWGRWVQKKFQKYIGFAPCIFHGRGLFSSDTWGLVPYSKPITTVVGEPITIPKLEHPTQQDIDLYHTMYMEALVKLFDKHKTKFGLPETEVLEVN
# Assay: DGAT2 Enzymatic Activity Assay
# Type: biochemical
# Conditions: membrane prep of Sf-9 cells expressing hDGAT2; 25 μM diolein, 5 μM 13C oleoyl-CoA; 13C18-triolein by LC/MS/MS; read-out: DGAT2 IC50
# Method in brief: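 Membranes from Sf-9 cells expressing untagged human DGAT2 (8 ng/μL) incubated at rt in 100 mM Tris·Cl pH 7.0, 20 mM MgCl2, 5% ethanol with 25 μM diolein and 5 μM 13C oleoyl-CoA. 13C18-triolein product quantified by LC/MS/MS against 13C21-triolein internal standard; IC50 by 4-parameter fit.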
row,IC50 [nM],Structure (SMILES)
1,779,"CC(C)n1c(=O)n(-c2cccc(OC(F)F)c2)c2ccc(C(=O)N[C@H]3CCC[C@@H]3O)cc21 [Example 28, 1-[3-(difluoromethoxy)phenyl]-N-[(1S,2S)-2-hydroxycyclopentyl]-3-isopropyl-2-oxo-benzimidazole-5-carboxamide]"
2,1260,"CC(C)n1c(=O)n(-c2cccc(OC(F)F)c2)c2ccc(C(=O)N[C@H]3CCOC[C@@H]3O)cc21 [Example 29, 1-[3-(difluoromethoxy)phenyl]-N-[(3R,4S)-3-hydroxytetrahydropyran-4-yl]-3-isopropyl-2-oxo-benzimidazole-5-carboxamide]"
3,31,"CC(C)n1c(=O)n(-c2cccc(OC(F)F)c2)c2ccc(C(=O)N[C@H]3CCCC(F)(F)[C@@H]3O)cc21 [Example 30, N-[(1S,2R)-3,3-difluoro-2-hydroxy-cyclohexyl]-1-[3-(difluoromethoxy)phenyl]-3-isopropyl-2-oxo-benzimidazole-5-carboxamide]"
4,96,"CC(C)n1c(=O)n(-c2cccc(OC(F)F)c2)c2ccc(C(=O)N[C@@]3(C)CCS(=O)(=O)C3)cc21 [Example 32, 1-[3-(difluoromethoxy)phenyl]-3-isopropyl-N-[(3S)-3-methyl-1,1-dioxo-thiolan-3-yl]-2-oxo-benzimidazole-5-carboxamide]"
5,182,"CC(C)n1c(=O)n(-c2cccc(OC(F)F)c2)c2ccc(C(=O)NC3(C)CC(F)(F)C3)cc21 [Example 33, 1-[3-(difluoromethoxy)phenyl]-N-(3,3-difluoro-1-methyl-cyclobutyl)-3-isopropyl-2-oxo-benzimidazole-5-carboxamide]"
6,64,"C[C@@]1(NC(=O)c2ccc3c(c2)n(C2CCC2)c(=O)n3-c2cccc(OC(F)F)c2)CCS(=O)(=O)C1 [Example 37, (R)-3-Cyclobutyl-1-(3-(difluoromethoxy)phenyl)-N-(3-methyl-1,1-dioxidotetrahydrothiophen-3-yl)-2-oxo-2,3-dihydro-1H-benzo[d]imidazole-5-carboxamide]"

# The remaining lines, values behind:
row,Structure (SMILES),IC50 [nM]
1,"CC(C)n1c(=O)n(-c2cccc(OC(F)F)c2)c2ccc(C(=O)NC3(C)CS(=O)(=O)C3)cc21 [Example 26, 1-[3-(difluoromethoxy)phenyl]-3-isopropyl-N-(3-methyl-1,1-dioxo-thietan-3-yl)-2-oxo-benzimidazole-5-carboxamide]",54
2,"CC(C)n1c(=O)n(-c2cccc(OC(F)F)c2)c2ccc(C(=O)NC(C)C(C)(C)O)cc21 (centres unmarked) [Example 27, 1-[3-(difluoromethoxy)phenyl]-N-(2-hydroxy-1,2-dimethyl-propyl)-3-isopropyl-2-oxo-benzimidazole-5-carboxamide]",> 10000
3,"CC(C)n1c(=O)n(-c2cccc(OC(F)F)c2)c2ccc(C(=O)N[C@@H]3CCCC[C@H]3O)cc21 [Example 31, 1-[3-(difluoromethoxy)phenyl]-N-[(1R,2R)-2-hydroxycyclohexyl]-3-isopropyl-2-oxo-benzimidazole-5-carboxamide]",106
4,"CC(C)[C@@H](CO)NC(=O)c1ccc2c(c1)n(C(C)C)c(=O)n2-c1cccc(OC(F)F)c1 [Example 34, 1-[3-(difluoromethoxy)phenyl]-N-[(1S)-1-(hydroxymethyl)-2-methyl-propyl]-3-isopropyl-2-oxo-benzimidazole-5-carboxamide]",62
5,"CC(C)n1c(=O)n(-c2cccc(OC(F)F)c2)c2ccc(C(=O)N[C@H]3CCCC[C@@H]3O)cc21 [Example 35, 1-[3-(difluoromethoxy)phenyl]-N-[(1S,2S)-2-hydroxycyclohexyl]-3-isopropyl-2-oxo-benzimidazole-5-carboxamide]",71
6,"CC1(NC(=O)c2ccc3c(c2)n(C2CCOCC2)c(=O)n3-c2cccc(OC(F)F)c2)CS(=O)(=O)C1 [Example 36, 1-(3-(difluoromethoxy)phenyl)-N-(3-methyl-1,1-dioxidothietan-3-yl)-2-oxo-3-(tetrahydro-2H-pyran-4-yl)-2,3-dihydro-1H-benzo[d]imidazole-5-carboxamide]",19.4
7,"C[C@@]1(NC(=O)c2ccc3c(c2)n(C2CCCC2)c(=O)n3-c2cccc(OC(F)F)c2)CCS(=O)(=O)C1 [Example 38, (R)-3-Cyclopentyl-1-(3-(difluoromethoxy)phenyl)-N-(3-methyl-1,1-dioxidotetrahydrothiophen-3-yl)-2-oxo-2,3-dihydro-1H-benzo[d]imidazole-5-carboxamide]",24
8,"CCn1c(=O)n(-c2cccc(OC(F)F)c2)c2ccc(C(=O)NC3(C)CCS(=O)(=O)CC3)cc21 [Example 39, 1-(3-(Difluoromethoxy)phenyl)-3-ethyl-N-(4-methyl-1,1-dioxidotetrahydro-2H-thiopyran-4-yl)-2-oxo-2,3-dihydro-1H-benzo[d]imidazole-5-carboxamide]",109
9,"CCn1c(=O)n(-c2cccc(OC(F)F)c2)c2ccc(C(=O)NC3(C)CS(=O)(=O)C3)cc21 [Example 40, 1-(3-(Difluoromethoxy)phenyl)-3-ethyl-N-(3-methyl-1,1-dioxidothietan-3-yl)-2-oxo-2,3-dihydro-1H-benzo[d]imidazole-5-carboxamide]",194
10,"CC1(NC(=O)c2ccc3c(c2)n(C2CC2)c(=O)n3-c2cccc(OC(F)F)c2)CCS(=O)(=O)CC1 [Example 41, 3-Cyclopropyl-1-(3-(difluoromethoxy)phenyl)-N-(4-methyl-1,1-dioxidotetrahydro-2H-thiopyran-4-yl)-2-oxo-2,3-dihydro-1H-benzo[d]imidazole-5-carboxamide]",211
11,"CC1(NC(=O)c2ccc3c(c2)n(CCC(F)(F)F)c(=O)n3-c2cccc(OC(F)F)c2)CCS(=O)(=O)CC1 [Example 42, 1-(3-(Difluoromethoxy)phenyl)-N-(4-methyl-1,1-dioxidotetrahydro-2H-thiopyran-4-yl)-2-oxo-3-(3,3,3-trifluoropropyl)-2,3-dihydro-1H-benzo[d]imidazole-5-carboxamide]",405
12,"CC1(NC(=O)c2ccc3c(c2)n(CC(F)(F)F)c(=O)n3-c2cccc(OC(F)F)c2)CS(=O)(=O)C1 [Example 43, 1-(3-(Difluoromethoxy)phenyl)-N-(3-methyl-1,1-dioxidothietan-3-yl)-2-oxo-3-(2,2,2-trifluoroethyl)-2,3-dihydro-1H-benzo[d]imidazole-5-carboxamide]",202
13,"CC1(NC(=O)c2ccc3c(c2)n(CC(F)(F)F)c(=O)n3-c2cccc(OC(F)F)c2)CCS(=O)(=O)CC1 [Example 44, 1-(3-(difluoromethoxy)phenyl)-N-(4-methyl-1,1-dioxidotetrahydro-2H-thiopyran-4-yl)-2-oxo-3-(2,2,2-trifluoroethyl)-2,3-dihydro-1H-benzo[d]imidazole-5-carboxamide]",87

# Same assay, conditions: membrane prep of Sf-9 cells expressing hDGAT2; 25 μM diolein, 5 μM 13C oleoyl-CoA; 13C18-triolein by LC/MS/MS; read-out: Human DGAT2 IC50
row,IC50 [nM],Structure (SMILES)
1,100,"CC(C)n1c(=O)n(-c2cccc(OC(F)(F)F)c2)c2ccc(C(=O)NC3(C)CS(=O)(=O)C3)cc21 [Example 19, 3-isopropyl-N-(3-methyl-1,1-dioxo-thietan-3-yl)-2-oxo-1-[3-(trifluoromethoxy)phenyl]benz-imidazole-5-carboxamide]"
2,63,"CC(C)n1c(=O)n(-c2cccc(OC(F)F)c2)c2ccc(C(=O)N[C@]3(C)CCS(=O)(=O)C3)cc21 [Example 23, (R)-1-(3-(Difluoromethoxy)phenyl)-3-isopropyl-N-(3-methyl-1,1-dioxidotetrahydrothiophen-3-yl)-2-oxo-2,3-dihydro-1H-benzo[d]imidazole-5-carboxamide]"

# Second part, the compound before the results:
row,Structure (SMILES),IC50 [nM]
1,"CC(C)n1c(=O)n(-c2cc(OC(F)F)ncc2F)c2ccc(C(=O)NC3(C)CS(=O)(=O)C3)cc21 [Example 20, 1-(2-(difluoromethoxy)-5-fluoropyridin-4-yl)-3-isopropyl-N-(3-methyl-1,1-dioxidothietan-3-yl)-2-oxo-2,3-dihydro-1H-benzo[d]imidazole-5-carboxamide]",76
2,"CCOc1cc(-n2c(=O)n(C(C)C)c3cc(C(=O)NC4(C)CS(=O)(=O)C4)c(F)cc32)c(F)cn1 [Example 21, 1-(2-Ethoxy-5-fluoropyridin-4-yl)-6-fluoro-3-isopropyl-N-(3-methyl-1,1-dioxidothietan-3-yl)-2-oxo-2,3-dihydro-1H-benzo[d]imidazole-5-carboxamide]",31
3,"CC(C)n1c(=O)n(-c2cccc(C3CC3(F)F)c2)c2ccc(C(=O)NC3(C)CS(=O)(=O)C3)cc21 (centres unmarked) [Example 22, 1-(3-(2,2-Difluorocyclopropyl)phenyl)-3-isopropyl-N-(3-methyl-1,1-dioxidothietan-3-yl)-2-oxo-2,3-dihydro-1H-benzo[d]imidazole-5-carboxamide]",66
4,"CC(C)n1c(=O)n(-c2cc(OC(F)F)ncc2F)c2cc(F)c(C(=O)NC3(C)CS(=O)(=O)C3)cc21 [Example 24, 1-(2-(Difluoromethoxy)-5-fluoropyridin-4-yl)-6-fluoro-3-isopropyl-N-(3-methyl-1,1-dioxidothietan-3-yl)-2-oxo-2,3-dihydro-1H-benzo[d]imidazole-5-carboxamide]",66
5,"CC(C)n1c(=O)n(-c2cccc(OC(F)F)c2)c2ccc(C(=O)NC3(C)CCS(=O)(=O)CC3)cc21 [Example 25, 1-(3-(difluoromethoxy)phenyl)-3-isopropyl-N-(4-methyl-1,1-dioxidotetrahydro-2H-thiopyran-4-yl)-2-oxo-2,3-dihydro-1H-benzo[d]imidazole-5-carboxamide]",23
